According to US8822467B2 (Ligand Pharmaceuticals Inc., priority 2009, dated 2014):

Molecular target: T1, human CRTH2 (Homo sapiens, UniProt Q9Y5Y4)
T1 construct: expressed in transfected cells
T1 sequence (Q9Y5Y4 1-395): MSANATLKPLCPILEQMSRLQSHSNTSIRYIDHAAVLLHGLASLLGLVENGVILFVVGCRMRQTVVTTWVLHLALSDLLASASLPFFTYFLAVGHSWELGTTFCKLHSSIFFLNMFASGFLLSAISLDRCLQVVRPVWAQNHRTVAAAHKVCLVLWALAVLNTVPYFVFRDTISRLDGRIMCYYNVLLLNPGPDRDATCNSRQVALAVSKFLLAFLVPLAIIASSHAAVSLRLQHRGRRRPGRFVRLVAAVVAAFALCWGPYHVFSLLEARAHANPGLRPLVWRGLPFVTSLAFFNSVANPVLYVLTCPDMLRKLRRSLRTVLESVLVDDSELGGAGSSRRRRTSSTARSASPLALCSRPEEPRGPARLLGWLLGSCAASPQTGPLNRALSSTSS
Experiment: [35S]GTPγS binding assay (SPA) on membranes from CHO-K1 cells stably expressing human CRTH2, stimulated with 60 nM DHK-PGD2
Assay type: biochemical
Conditions: potency class symbols; Table 2; read-out: CRTH2 hGTPγS IC50
How it was run: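 Membranes (4 μg) from CHO-K1 cells stably expressing human CRTH2 were incubated with compounds, 60 nM DHK-PGD2, 500 pM [35S]GTPγS and 10 μM GDP plus WGA SPA beads. Buffer was 20 mM HEPES pH 7.4, 10 mM MgCl2, 300 mM NaCl, 0.2% BSA, with 1% DMSO. Incubation ran 2 h at ambient temperature, with SPA scintillation read 4 h after centrifugation.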

Row | IC50 | Structure (SMILES)
1 | 1000 to 10000 nM | COc1cccc(S(=O)(=O)N(C)Cc2ccc(OCC(=O)O)c(-c3cccc(C(F)(F)F)c3)c2)c1 [Example 153, 2-(3-trifluoromethylphenyl)-4-((3-methoxy-N-methylphenylsulfonamido)methyl)phenoxyacetic acid]
2 | 100 to 1000 nM | Cc1nnc(-c2cccc(-c3cc(CN(C)S(=O)(=O)c4ccc(F)cc4)ccc3OCC(=O)O)c2)o1 [Example 129, 2-(3-(5-methyl-1,3,4-oxadiazol-2-yl)phenyl)-4-((4-fluoro-N-methylphenylsulfonamido)methyl)phenoxyacetic acid]
3 | 100 to 1000 nM | COc1cc(S(=O)(=O)N(C)Cc2ccc(OCC(=O)O)c(-c3cccc(C#N)c3)c2)ccc1F [Example 103, 2-(3-cyanophenyl)-4-((3-methoxy-4-fluoro-N-methylphenylsulfonamido)methyl)phenoxyacetic acid]
4 | < 100 nM | CN(Cc1cc(-c2cc(F)cc(C#N)c2)c(OCC(=O)O)cc1F)S(=O)(=O)c1ccc(Cl)c(Cl)c1 [Example 211, 2-(3-cyano-5-fluoro-phenyl)-4-((3,4-dichloro-N-methylphenylsulfonamido)methyl)-5-fluorophenoxyacetic acid]
5 | < 100 nM | N#Cc1cc(F)cc(-c2cc(CNS(=O)(=O)c3ccc(F)cc3)ccc2OCC(=O)O)c1 [Example 195, 2-(3-cyano-5-fluorophenyl)-4-((4-fluorophenylsulfonamido)methyl)phenoxyacetic acid]
6 | < 100 nM | CN(Cc1cc(-c2cccc(C#N)c2)c(OCC(=O)O)cc1F)S(=O)(=O)c1ccccc1 [Example 98, 2-(3-cyanophenyl)-4-((N-methylphenylsulfonamido)methyl)-5-fluorophenoxyacetic acid]
7 | < 100 nM | CN(Cc1cc(-c2cccc(C#N)c2)c(OCC(=O)O)cc1F)S(=O)(=O)c1cccc(F)c1 [Example 87, 2-(3-cyanophenyl)-4-((3-fluoro-N-methylphenylsulfonamido)methyl)-5-fluorophenoxyacetic acid]
8 | 100 to 1000 nM | CCN(Cc1ccc(OCC(=O)O)c(-c2cccc(C(F)(F)F)c2)c1)S(=O)(=O)c1ccc(F)c(F)c1 [Example 113, 2-(3-trifluoromethylphenyl)-4-((3,4-difluoro-N-ethylphenylsulfonamido)methyl)phenoxyacetic acid]
9 | 100 to 1000 nM | CN(Cc1ccc(OCC(=O)O)c(-c2cc(C(F)(F)F)ccc2Cl)c1)S(=O)(=O)c1ccc(F)cc1 [Example 115, 2-(2-chloro-5-trifluoromethylphenyl)-4-((4-fluoro-N-methylphenylsulfonamido)methyl)phenoxyacetic acid]
10 | 100 to 1000 nM | CN(Cc1ccc(OCC(=O)O)c(-c2cccc(Br)c2)c1)S(=O)(=O)c1ccc(F)cc1 [Example 142, 2-(3-bromophenyl)-4-((4-fluoro-N-methylphenylsulfonamido)methyl)phenoxyacetic acid]
11 | < 100 nM | CN(Cc1ccc(OCC(=O)O)c(-c2cccc(C#N)c2)c1)S(=O)(=O)c1ccc(Cl)c(F)c1 [Example 65, 2-(3-cyanophenyl)-4-((3-fluoro-4-chloro-N-methylphenylsulfonamido)methyl)phenoxyacetic acid]
12 | 100 to 1000 nM | CN(Cc1ccc(OCC(=O)O)c(-c2cccc(C(F)(F)F)c2)c1)S(=O)(=O)c1ccc(Cl)cc1 [Example 116, 2-(3-trifluoromethylphenyl)-4-((4-chloro-N-methylphenylsulfonamido)methyl)phenoxyacetic acid]
13 | 1000 to 10000 nM | CN(Cc1ccc(OCC(=O)O)c(-c2ccc(C(F)(F)F)cc2)c1)S(=O)(=O)c1ccc(F)cc1 [Example 162, 2-(4-trifluoromethylphenyl)-4-((4-fluoro-N-methylphenylsulfonamido)methyl)phenoxyacetic acid]
14 | 100 to 1000 nM | Cc1ccc(S(=O)(=O)N(C)Cc2ccc(OCC(=O)O)c(-c3cccc(C#N)c3)c2)cc1 [Example 109, 2-(3-cyanophenyl)-4-((4-methyl-N-methylphenylsulfonamido)methyl)phenoxyacetic acid]
15 | 100 to 1000 nM | CN(Cc1ccc(OCC(=O)O)c(-c2cc(F)ccc2F)c1)S(=O)(=O)c1ccc(F)cc1 [Example 118, 2-(2,5-difluorophenyl)-4-((4-fluoro-N-methylphenylsulfonamido)methyl)phenoxyacetic acid]
16 | 100 to 1000 nM | CN(Cc1ccc(OCC(=O)O)c(-c2ccc3ccncc3c2)c1)S(=O)(=O)c1ccc(F)cc1 [Example 212, 2-(isoquinolin-7-yl)-4-((4-fluoro-N-methylphenylsulfonamido)methyl)phenoxyacetic acid]
17 | < 100 nM | CN(Cc1ccc(OCC(=O)O)c(-c2cc(F)cc(C#N)c2)c1)S(=O)(=O)c1ccc(F)c(Cl)c1 [Example 55, 2-(3-cyano-5-fluorophenyl)-4-((3-chloro-4-fluoro-N-methylphenylsulfonamido)methyl)phenoxyacetic acid]

Row | IC50 | Structure (SMILES)
18 | 100 to 1000 nM | CN(Cc1ccc(OCC(=O)O)c(-c2ccn3ccnc3c2)c1)S(=O)(=O)c1ccc(F)cc1 [Example 128, 2-(imidazo[1,2-a]pyridin-7-yl)-4-((4-fluoro-N-methylphenylsulfonamido)methyl)phenoxyacetic acid]
19 | 100 to 1000 nM | CN(Cc1ccc(OCC(=O)O)c(-c2cccc(C(F)(F)F)c2)c1)S(=O)(=O)c1cccc2cccnc12 [Example 143, 2-(3-trifluoromethylphenyl)-4-((N-methylquinoline-8-sulfonamido)methyl)phenoxyacetic acid]
20 | < 100 nM | CN(Cc1cc(-c2cccc(C#N)c2)c(OCC(=O)O)cc1Cl)S(=O)(=O)c1cccc(F)c1 [Example 53, 2-(3-cyanophenyl)-4-((3-fluoro-N-methylphenylsulfonamido)methyl)-5-chlorophenoxyacetic acid]
21 | < 100 nM | CN(Cc1ccc(OCC(=O)O)c(-c2cccc(C(F)(F)F)c2)c1)S(=O)(=O)c1ccc(F)cc1 [Example 95, 2-(3-trifluoromethylphenyl)-4-((4-fluoro-N-methylphenylsulfonamido)methyl)phenoxyacetic acid]
22 | 1000 to 10000 nM | CN(Cc1ccc(OCC(=O)O)c(-c2cccc(C(F)(F)F)c2)c1)S(=O)(=O)Cc1ccccc1 [Example 159, 2-(3-trifluoromethylphenyl)-4-((N-methylbenzylsulfonamido)methyl)phenoxyacetic acid]
23 | 100 to 1000 nM | CN(Cc1cc(F)c(OCC(=O)O)c(-c2cc(F)cc(F)c2)c1)S(=O)(=O)c1ccc(F)cc1 [Example 139, 2-(3,5-difluorophenyl)-4-((4-fluoro-N-methylphenylsulfonamido)methyl)-6-fluorophenoxyacetic acid]
24 | < 100 nM | COc1ccc(S(=O)(=O)N(C)Cc2ccc(OCC(=O)O)c(-c3cccc(C#N)c3)c2)cc1F [Example 71, 2-(3-cyanophenyl)-4-((3-fluoro-4-methoxy-N-methylphenylsulfonamido)methyl)phenoxyacetic acid]
25 | < 100 nM | CN(C)S(=O)(=O)c1cccc(-c2cc(CN(C)S(=O)(=O)c3ccc(F)cc3)ccc2OCC(=O)O)c1 [Example 85, 2-(3-N,N-dimethylsulfamoylphenyl)-4-((4-fluoro-N-methylphenylsulfonamido)methyl)phenoxyacetic acid]
26 | < 100 nM | CN(Cc1ccc(OCC(=O)O)c(-c2cccc(C#N)c2)c1)S(=O)(=O)c1ccc(Cl)c(Cl)c1 [Example 56, 2-(3-cyanophenyl)-4-((3,4-dichloro-N-methylphenylsulfonamido)methyl)phenoxyacetic acid]
27 | < 100 nM | CN(Cc1ccc(OCC(=O)O)c(-c2cccc(C#N)c2)c1)S(=O)(=O)c1cc(F)cc(Cl)c1 [Example 99, 2-(3-cyanophenyl)-4-((3-chloro-5-fluoro-N-methylphenylsulfonamido)methyl)phenoxyacetic acid]
28 | 100 to 1000 nM | CN(Cc1ccc(OCC(=O)O)c(-c2cccc(F)c2F)c1)S(=O)(=O)c1ccc(F)cc1 [Example 122, 2-(2,3-difluorophenyl)-4-((4-fluoro-N-methylphenylsulfonamido)methyl)phenoxyacetic acid]
29 | 1000 to 10000 nM | CN(Cc1ccc(OC(C)(C)C(=O)O)c(-c2cccc(C(F)(F)F)c2)c1)S(=O)(=O)c1ccc(F)cc1 [Example 34, 2-(2-(3-trifluoromethylphenyl)-4-((4-fluoro-N-methylphenylsulfonamido)methyl)phenoxy)-2-methylpropanoic acid]
30 | < 100 nM | CN(Cc1cc(-c2cccc(C#N)c2)c(OCC(=O)O)cc1Cl)S(=O)(=O)c1ccccc1 [Example 73, 2-(3-cyanophenyl)-4-((N-methylphenylsulfonamido)methyl)-5-chlorophenoxyacetic acid]
31 | 1000 to 10000 nM | CN(Cc1ccc(OCC(=O)O)c(-c2cc(C(F)(F)F)ccn2)c1)S(=O)(=O)c1ccc(F)cc1 [Example 168, 2-(4-trifluoromethylpyridinyl)-4-((4-fluoro-N-methylphenylsulfonamido)methyl)phenoxyacetic acid]
32 | < 100 nM | CN(Cc1ccc(OCC(=O)O)c(-c2cccc(S(C)(=O)=O)c2)c1)S(=O)(=O)c1cccc(C#N)c1 [Example 88, 2-(3-methylsulfonylphenyl)-4-((3-cyano-N-methylphenylsulfonamido)methyl)phenoxyacetic acid]
33 | < 100 nM | Cc1ccc(S(=O)(=O)N(C)Cc2ccc(OCC(=O)O)c(-c3cccc(C#N)c3)c2)cc1F [Example 92, 2-(3-cyanophenyl)-4-((3-fluoro-4-methyl-N-methylphenylsulfonamido)methyl)phenoxyacetic acid]
